ChEMBL document CHEMBL2163195, “Development of potent carbonic anhydrase inhibitors incorporating both sulfonamide and sulfamide groups” (J Med Chem, 2012)

biological target: Carbonic anhydrase 9 (Homo sapiens, UniProt Q16790)

| Compound | Ki |
| --- | --- |
| NS(=O)(=O)Nc1ccc(S(=O)(=O)Nc2ccc(S(N)(=O)=O)cc2)cc1 | 27 nM |
| NS(=O)(=O)Nc1ccc(S(=O)(=O)NCCc2ccc(S(N)(=O)=O)cc2)cc1 | 65 nM |
| CC(=O)Nc1ccc(S(=O)(=O)Nc2ccc(C(=O)NCCc3ccc(S(N)(=O)=O)cc3)cc2)cc1 | 4.5 nM |
| NS(=O)(=O)Nc1ccc(S(=O)(=O)Nc2ccc(C(=O)O)cc2)cc1 | 57 nM |
| NS(=O)(=O)Nc1ccc(S(=O)(=O)NCc2ccc(S(N)(=O)=O)cc2)cc1 | 35 nM |
| NS(=O)(=O)Nc1ccc(S(=O)(=O)Nc2ccc(C(=O)NCCc3ccc(S(N)(=O)=O)cc3)cc2)cc1 | 0.4 nM |

Results, then the compound that gave them:

| Ki | Compound |
| --- | --- |
| 65 nM | NS(=O)(=O)NCc1ccc(S(N)(=O)=O)cc1 |
| 611 nM | NS(=O)(=O)NCCc1ccc(S(N)(=O)=O)cc1 |
| 64 nM | NS(=O)(=O)Nc1ccc(S(N)(=O)=O)cc1 |
